From publication PMC6757289, “Design and Characterization of SGK3-PROTAC1, an Isoform Specific SGK3 Kinase PROTAC Degrader” (ACS Chemical Biology, 2019)
Like-named read-outs stand apart in the source and are kept apart here.

Tests used:
Experiment in all cases: kinase profiling panel
Type in all cases: biochemical
PAK6 = PAK6 (Homo sapiens, UniProt Q9NQU5); conditions: read-out: % Activity Remaining
From the text: (§1) Protein kinase profiling against a Dundee panel of 140 protein kinases was undertaken at the International Centre for Protein Kinase Profiling. The result for each kinase was presented as a mean kinase activity of the reaction taken in triplicate relative to a control sample treated with DMSO. Assay conditions and abbreviations are available at http://www.kinase-screen.mrc.ac.uk.

NEK2a = molecular target: T1, NEK2a (Homo sapiens, UniProt P51955); conditions: read-out: % Activity Remaining
T1 sequence (P51955 1-445): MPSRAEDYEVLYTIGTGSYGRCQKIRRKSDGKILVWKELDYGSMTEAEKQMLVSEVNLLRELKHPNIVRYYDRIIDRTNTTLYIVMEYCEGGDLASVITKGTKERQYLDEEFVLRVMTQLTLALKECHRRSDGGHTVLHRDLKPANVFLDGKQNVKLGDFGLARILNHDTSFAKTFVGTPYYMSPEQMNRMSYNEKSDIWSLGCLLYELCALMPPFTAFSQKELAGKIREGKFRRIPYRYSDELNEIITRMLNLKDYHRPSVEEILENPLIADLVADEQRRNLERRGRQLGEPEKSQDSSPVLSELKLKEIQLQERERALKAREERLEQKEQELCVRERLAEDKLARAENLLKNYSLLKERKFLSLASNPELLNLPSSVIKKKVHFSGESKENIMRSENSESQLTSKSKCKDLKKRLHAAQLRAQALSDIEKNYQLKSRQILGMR
From the text: as §1

LKB1 = molecular target: T2, LKB1 (Homo sapiens, UniProt Q15831); conditions: read-out: % Activity Remaining
T2 sequence (Q15831 1-433): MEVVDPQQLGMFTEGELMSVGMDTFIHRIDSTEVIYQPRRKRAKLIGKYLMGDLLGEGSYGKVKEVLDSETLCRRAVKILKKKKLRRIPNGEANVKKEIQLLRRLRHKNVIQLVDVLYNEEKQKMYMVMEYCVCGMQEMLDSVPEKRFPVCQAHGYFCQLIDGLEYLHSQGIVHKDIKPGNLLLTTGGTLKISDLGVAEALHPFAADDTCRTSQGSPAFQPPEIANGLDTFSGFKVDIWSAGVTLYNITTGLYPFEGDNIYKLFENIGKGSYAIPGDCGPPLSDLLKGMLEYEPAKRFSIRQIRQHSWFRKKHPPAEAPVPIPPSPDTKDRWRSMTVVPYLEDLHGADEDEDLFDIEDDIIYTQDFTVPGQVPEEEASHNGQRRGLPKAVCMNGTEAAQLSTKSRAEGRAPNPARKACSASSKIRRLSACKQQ
T2 sequence (Q7RTN6 1-431 partner): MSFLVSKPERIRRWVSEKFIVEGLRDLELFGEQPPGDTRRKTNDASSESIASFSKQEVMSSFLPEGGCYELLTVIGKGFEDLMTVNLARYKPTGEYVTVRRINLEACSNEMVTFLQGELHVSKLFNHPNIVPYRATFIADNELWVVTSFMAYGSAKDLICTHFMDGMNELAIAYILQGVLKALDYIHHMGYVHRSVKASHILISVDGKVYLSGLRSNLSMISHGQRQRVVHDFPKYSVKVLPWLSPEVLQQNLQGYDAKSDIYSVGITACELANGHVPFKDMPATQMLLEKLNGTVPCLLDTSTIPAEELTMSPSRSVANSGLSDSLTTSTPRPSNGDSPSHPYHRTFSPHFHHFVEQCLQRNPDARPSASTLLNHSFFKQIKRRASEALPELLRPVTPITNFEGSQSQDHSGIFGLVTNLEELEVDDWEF
T2 sequence (Q9Y376 1-341 partner): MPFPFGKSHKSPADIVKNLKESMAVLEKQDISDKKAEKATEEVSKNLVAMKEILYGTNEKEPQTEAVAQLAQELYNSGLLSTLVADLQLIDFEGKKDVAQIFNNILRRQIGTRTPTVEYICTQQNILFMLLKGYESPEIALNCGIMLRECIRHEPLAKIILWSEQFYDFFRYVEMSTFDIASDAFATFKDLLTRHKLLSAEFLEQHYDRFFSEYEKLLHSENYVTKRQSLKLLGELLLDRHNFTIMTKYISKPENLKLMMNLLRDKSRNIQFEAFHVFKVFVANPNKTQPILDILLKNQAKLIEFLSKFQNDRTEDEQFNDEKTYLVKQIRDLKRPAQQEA
From the text: as §1

MARK1 = MARK1 (Homo sapiens, UniProt Q9P0L2); conditions: read-out: % Activity Remaining
From the text: as §1

IRAK4 = molecular target: T3, IRAK4 (Homo sapiens, UniProt Q9NWZ3); conditions: read-out: % Activity Remaining
T3 sequence (Q9NWZ3 1-460): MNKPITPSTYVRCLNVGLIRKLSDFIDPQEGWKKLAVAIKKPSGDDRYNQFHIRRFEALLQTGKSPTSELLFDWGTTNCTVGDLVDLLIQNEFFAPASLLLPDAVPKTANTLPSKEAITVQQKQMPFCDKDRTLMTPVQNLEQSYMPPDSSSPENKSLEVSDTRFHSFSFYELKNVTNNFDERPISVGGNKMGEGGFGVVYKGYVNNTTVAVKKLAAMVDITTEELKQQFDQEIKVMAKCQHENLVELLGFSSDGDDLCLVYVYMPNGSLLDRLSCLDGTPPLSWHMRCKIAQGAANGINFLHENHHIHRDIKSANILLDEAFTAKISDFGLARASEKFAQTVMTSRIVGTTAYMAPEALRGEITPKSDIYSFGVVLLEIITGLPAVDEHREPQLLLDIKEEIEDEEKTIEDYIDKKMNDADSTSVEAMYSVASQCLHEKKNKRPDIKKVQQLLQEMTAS
From the text: as §1

SmMLCK = SmMLCK (Homo sapiens, UniProt Q15746)
From the text: as §1

Sequence of PAK6 (Q9NQU5 whole entry): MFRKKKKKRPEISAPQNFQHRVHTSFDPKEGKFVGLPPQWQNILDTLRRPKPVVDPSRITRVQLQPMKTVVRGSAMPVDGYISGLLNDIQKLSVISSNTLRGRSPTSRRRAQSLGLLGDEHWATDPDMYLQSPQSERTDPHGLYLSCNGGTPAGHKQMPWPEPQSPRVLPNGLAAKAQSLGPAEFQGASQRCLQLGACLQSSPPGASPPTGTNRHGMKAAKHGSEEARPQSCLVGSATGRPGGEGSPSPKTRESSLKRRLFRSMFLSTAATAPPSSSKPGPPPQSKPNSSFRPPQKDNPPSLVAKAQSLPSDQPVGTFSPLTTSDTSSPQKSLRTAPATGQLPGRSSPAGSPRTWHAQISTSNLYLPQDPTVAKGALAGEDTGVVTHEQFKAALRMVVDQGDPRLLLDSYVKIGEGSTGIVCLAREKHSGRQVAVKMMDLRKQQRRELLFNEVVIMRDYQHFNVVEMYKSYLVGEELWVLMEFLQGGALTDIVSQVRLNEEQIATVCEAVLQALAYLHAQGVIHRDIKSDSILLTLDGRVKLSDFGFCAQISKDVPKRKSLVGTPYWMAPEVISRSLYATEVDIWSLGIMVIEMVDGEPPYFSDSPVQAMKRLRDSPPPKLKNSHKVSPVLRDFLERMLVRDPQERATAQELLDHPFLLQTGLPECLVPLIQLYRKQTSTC
Sequence of MARK1 (Q9P0L2 whole entry): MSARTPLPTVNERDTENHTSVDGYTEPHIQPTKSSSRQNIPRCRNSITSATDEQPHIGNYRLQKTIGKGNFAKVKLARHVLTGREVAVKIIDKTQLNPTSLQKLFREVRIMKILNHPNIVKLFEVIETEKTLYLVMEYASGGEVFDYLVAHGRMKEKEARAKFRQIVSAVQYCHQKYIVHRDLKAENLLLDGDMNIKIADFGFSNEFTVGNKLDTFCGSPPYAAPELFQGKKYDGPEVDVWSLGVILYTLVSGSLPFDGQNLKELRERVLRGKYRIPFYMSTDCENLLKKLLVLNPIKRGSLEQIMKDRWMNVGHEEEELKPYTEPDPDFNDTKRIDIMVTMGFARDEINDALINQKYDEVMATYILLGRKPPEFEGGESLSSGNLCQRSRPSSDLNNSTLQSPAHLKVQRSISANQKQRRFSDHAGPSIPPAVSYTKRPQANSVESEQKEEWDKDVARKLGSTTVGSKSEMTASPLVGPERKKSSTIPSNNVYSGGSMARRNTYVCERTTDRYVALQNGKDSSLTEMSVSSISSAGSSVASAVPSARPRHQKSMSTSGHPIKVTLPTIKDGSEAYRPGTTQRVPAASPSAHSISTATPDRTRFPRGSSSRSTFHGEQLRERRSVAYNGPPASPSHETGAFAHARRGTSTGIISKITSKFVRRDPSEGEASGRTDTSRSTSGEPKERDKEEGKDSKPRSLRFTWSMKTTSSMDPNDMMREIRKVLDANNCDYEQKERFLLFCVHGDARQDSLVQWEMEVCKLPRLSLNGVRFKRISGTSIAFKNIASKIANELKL
Sequence of SmMLCK (Q15746 923-1914): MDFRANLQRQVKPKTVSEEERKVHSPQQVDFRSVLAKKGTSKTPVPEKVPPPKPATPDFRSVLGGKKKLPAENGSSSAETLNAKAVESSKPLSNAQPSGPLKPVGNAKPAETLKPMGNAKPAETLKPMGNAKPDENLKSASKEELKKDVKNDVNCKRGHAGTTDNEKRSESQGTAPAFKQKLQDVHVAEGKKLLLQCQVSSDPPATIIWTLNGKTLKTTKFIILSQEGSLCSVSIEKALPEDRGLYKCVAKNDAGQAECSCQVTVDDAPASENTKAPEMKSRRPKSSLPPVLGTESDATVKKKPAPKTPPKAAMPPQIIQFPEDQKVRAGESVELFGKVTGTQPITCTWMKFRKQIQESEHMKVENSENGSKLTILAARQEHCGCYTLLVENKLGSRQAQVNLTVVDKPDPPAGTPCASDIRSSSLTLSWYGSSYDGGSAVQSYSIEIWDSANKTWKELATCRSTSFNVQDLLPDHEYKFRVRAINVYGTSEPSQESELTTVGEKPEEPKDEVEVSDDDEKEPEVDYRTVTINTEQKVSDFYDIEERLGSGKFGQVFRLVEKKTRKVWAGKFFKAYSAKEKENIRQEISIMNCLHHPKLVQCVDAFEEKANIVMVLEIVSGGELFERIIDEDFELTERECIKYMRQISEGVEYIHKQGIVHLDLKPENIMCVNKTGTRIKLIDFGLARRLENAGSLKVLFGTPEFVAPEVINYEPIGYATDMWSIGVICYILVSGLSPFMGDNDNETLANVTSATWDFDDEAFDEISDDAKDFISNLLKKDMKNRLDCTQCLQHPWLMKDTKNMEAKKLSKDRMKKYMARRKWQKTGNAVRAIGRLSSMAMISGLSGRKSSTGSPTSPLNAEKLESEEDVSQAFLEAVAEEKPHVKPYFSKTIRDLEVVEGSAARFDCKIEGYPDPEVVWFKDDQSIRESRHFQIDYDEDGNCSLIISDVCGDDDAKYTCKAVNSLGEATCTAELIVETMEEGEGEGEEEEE

SMILES	remaining activity at 1 µM (PAK6)	remaining activity at 1 µM (NEK2a)	remaining activity at 1 µM (LKB1)	remaining activity at 1 µM (MARK1)	remaining activity at 1 µM (IRAK4)	remaining activity at 1 µM (SmMLCK)	remaining activity at 1 µM (PAK6; 1 µM)	remaining activity at 1 µM (NEK2a; 1 µM)	remaining activity at 1 µM (LKB1; 1 µM)	remaining activity at 1 µM (MARK1; 1 µM)	remaining activity at 1 µM (IRAK4; 1 µM)
COc1ccc(Cl)c(S(=O)(=O)Nc2ccc(-c3nc(OC[C@H]4CNCCO4)c4c(C)n[nH]c4n3)cc2)c1 [290-R, reference compound]	94%	74%	106%	115%	74%	23%					
Cc1ccc(F)c(S(=O)(=O)Nc2ccc(-c3nc(OC[C@H]4CNCCO4)c4cn[nH]c4n3)cc2)c1 [308-R, reference compound]	80%	67%	96%	109%	105%	74%					
Cc1ccc(F)c(S(=O)(=O)Nc2ccc(-c3nc(OC[C@H]4CN(CCCCCCOCCOCCOCC(=O)N[C@H](C(=O)N5C[C@H](O)C[C@H]5C(=O)NCc5ccc(-c6scnc6C)cc5)C(C)(C)C)CCO4)c4cn[nH]c4n3)cc2)c1 [SGK3-PROTAC1]						53%	98%	162%	105%	99%	114%
Cc1ccc(F)c(S(=O)(=O)Nc2ccc(-c3nc(OC[C@H]4CN(CCCCCCOCCOCCOCC(=O)N[C@H](C(=O)N5C[C@@H](O)C[C@H]5C(=O)NCc5ccc(-c6scnc6C)cc5)C(C)(C)C)CCO4)c4cn[nH]c4n3)cc2)c1 [cisSGK3-PROTAC1]						71%	99%	139%	112%	93%	98%
